Two sequences from patent publication US8183210B2, “Reconstituted surfactants having improved properties” (Chiesi Farmaceutici S.p.A., priority 2006, dated 2012) can be followed below.

Bridge positions count the residues as written; N and C are the ends. Ends that are not written are not given here.

In this assay the test system is premature newborn rabbits. The experiment in a line: Surfactant preparations in ventilated premature newborn rabbits without PEEP (model of RDS): lung gas volumes and tidal volumes. The assay is classed as in vivo, rabbit. To be noted: no PEEP; for lung gas volumes (median): reconstituted surfactant, 2% w/w of each named peptide in DPPC:POPG 68:31 w/w, 80 mg/ml, 2.5 ml/kg at birth, FIG. 3. How it is done:
The surfactant preparations were assayed in premature newborn rabbits, obtained by hysterectomy at the gestational age of 27 days. The experiments were performed without applying a positive end expiratory pressure (PEEP). As the SP-C analog, the polypeptide referred to as SP-C33 was used which was prepared according to Example 1. As the analog of the protein SP-B, oxidized Mini-B (ox Mini-B) was used which was prepared according to Example 2.
The animals were treated at birth with reconstituted surfactant preparations containing, as lipid carrier, the phospholipid mixture DPPC:POPG in the ratio 68:31 w/w. The phospholipids were mixed with 2 or 4% w/w SPC-33, 2% w/w ox Mini-B, or 2% w/w SPC-33 plus 2% w/w ox Mini-B. Animals receiving the same dose of Curosurf® served as positive controls, and non-treated littermates served as negative controls. All surfactant preparations were administered at a concentration of 80 mg/ml and at a standard dose of 2.5 ml/kg.
The immature newborn rabbits were ventilated in parallel with a standardized sequence of peak insufflation pressures. To open up the lungs, pressure was first set at 35 cmH2O for 1 minute. After this recruitment manoeuvre, pressure was lowered to 25 cmH2O for 15 minutes and further on to 20 and 15 cm H2O. Finally, the pressure was raised again to 25 cmH2O for 5 minutes, after which the lungs were ventilated for additional 5 minutes with nitrogen and then excised for gas volume measurements. Both lung gas volumes and tidal volumes expressed as ml/kg were measured, and the results, given as median values, are reported in FIGS. 3 and 4, respectively.

“IPSSPVHLKRLKLLLLLLLLILLLILGALLMGL [SP-C33]”: the “lung gas volumes (median)” value was “about 4 ml/kg”. In addition, the “lung gas volumes, effect of increasing SP-C33 content” value (SP-C33 content raised from 2 to 4% w/w in DPPC:POPG 68:31) was “did not increase lung gas volumes”. “CWLCRALIKRIQAMIPKGGRMLPQLVCRLVLRCS (disulfide 1-33, 4-27) [ox Mini-B, SP-B analog]”: the “lung gas volumes (median)” value is “about 2 ml/kg”.
